Experimental findings from patent US20020103131A1, “Prevention of diabetes by administration of GnRH antagonists” (priority 2001, published 2002) are described below.

Type in all cases: in vivo
One assay concerns gonadectomized NOD mice. Nature of the assay: Serum total immunoglobulin G concentrations (single radial immunodiffusion) in gonadectomized NOD mice. Particulars: 100 μg subcutaneously six times weekly, 8 weeks of treatment, compared to vehicle / sham operated, FIG. 1. The source says:
(§1) The well-characterized NOD mice were used throughout the study. Male and female mice were purchased from the Jackson Laboratory (Bar Harbor, Me.). These mice are art-recognized animal models used in diabetes research. (Makino et al., (1980) Breeding of a Non-obese Diabetic Strain of Mice. Exp Anim, 29, 1-13; Miyazaki, A. T., et al, (1985) Predominance of T Lymphocytes in Pancreatic Islets and Spleen in Prediabetic Non-obese Diabetic (Nod) Mice: a Longitudinal Study. Clin Exp immunol, 60, 622-630)
(§2) Both intact and gonadectomized mice (GDX) were used. […] To compare the effects of GnRH agonists and antagonists, gonadectomized animals were randomized at 14 to 18 days of age and begun immediately in one of the following main treatment groups: GnRH agonist; Antide; vehicle. One group of gonadectomized males was treated with Nal-Glu, as an additional control. […]
(§3) Total immunoglobulin G concentrations were measured by single radial immunodiffusion assay using immunodiffusion plates containing monospecific antiserum for IgG (ICN Biomedicals, Inc., Costa Mesa, Calif.). […] Glycosuria was scored by comparison to reference standards on a scale of 0 to 4 as follows: negative=0; 30 mg/dL=1; 100 mg/dL=2; 300 mg/dL=3;>1000 mg/dL=4.
(§4) Serum immunoglobulin measurements were compared by two-tailed Student's paired t-tests. Percentages of mice remaining diabetes-free was assessed by Mantel-Haenszel methodology. […]

Another assay deals with NOD mice. Nature of the assay: Serum prolactin by radioimmunoassay in treated NOD mice. The conditions noted are these: NOD mice under agonist or antagonist treatment. The method, then:
Both intact and gonadectomized mice (GDX) were used. […] To compare the effects of GnRH agonists and antagonists, gonadectomized animals were randomized at 14 to 18 days of age and begun immediately in one of the following main treatment groups: GnRH agonist; Antide; vehicle. One group of gonadectomized males was treated with Nal-Glu, as an additional control.
GnRH (native decapeptide) was purchased from Bachem (Bubendorf, Switzerland). GnRH antagonist Antide (Acetyl-β-[2-Naphthyl]-D-Ala-D-p-Chloro-Phe-β-[3-Pyridyl]-D-Ala-Ser-Nε-]-Lys-Nε-[Nicotinoyl]-D-Lys-Leu-Nε-[Isopropyl]-Lys-Pro-D-Ala-NH2) was supplied by Contraceptive Development Branch (NICHHD) of the National Institutes of Health and Ares-Serono (Randolph, Mass.). A second GnRH antagonist, Nal-Glu (acetyl-D2Nal1, D4ClPhe2, D3Pal3, Arg5, Dglu6(AA), DAla10) was supplied by NICHHD and was used on a subset of mice. All references to GnRH agonist refer to the native decapeptide. Animals were injected subcutaneously in the nape of the neck six times weekly, in the a.m., with 100 μg of GnRH or GnRH antagonist in 100 μl of vehicle consisting of 50% propylene glycol and 50% double distilled water. […]
Serum testosterone concentrations were measured by RIA using a commercial kit (Coat-A-Count, Diagnostic Products Corporation, Los Angeles, Calif.). Serum LH and prolactin were measured by radioimmunoassay (RIA) using previously described methods. […]

The subject of assay [1] is gonadectomized male NOD mice. Nature of the assay: Incidence and onset of diabetes in gonadectomized male NOD mice. The conditions noted are these: 100 μg subcutaneously six times weekly.
Description: as §1, §2, §3, §4

“Also recorded” adds a separate entry of the source.

Regarding “GnRH agonist: GnRH (native decapeptide) purchased from Bachem; all references to GnRH agonist refer to the native decapeptide (QHWSYGLRPG; Gonadoliberin-1; UniProt P01148 24-33, looked up)”, the “Serum IgG concentrations” value in the assay on gonadectomized NOD mice is reported as “further increased IgG levels compared to vehicle; also recorded: reciprocal effects”. The Serum prolactin levels entry in the assay with NOD mice is recorded as “neither agonist nor antagonist treatment altered serum prolactin levels”. Also, the “Timing of onset of diabetes” value in assay [1] (gonadectomized NOD mice) is reported as “accelerated the timing of onset of diabetes; also recorded: reciprocal effects”. Also, the Incidence of diabetes result in assay [1] (gonadectomized male NOD mice, compared to vehicle, FIG. 2) is recorded as “significantly increased the incidence”.
